Test results taken from PMC11382315 (Heliyon, 2024).

Legend:
primary human thyrocytes = assay: Observed cytotoxic effects in stimulated primary human thyrocytes; type: cell-based; settings: two doses: 10 and 40 μM (β-sitosterol 50 and 150 μM)
HSP90AA1 [1] = molecular target: T1, HSP90AA1 (Homo sapiens, UniProt P07900); assay: Microscale thermophoresis; type: binding
HSP90AA1 [2] = molecular target: T1, HSP90AA1; assay: Limited proteolysis-mass spectrometry; type: binding; settings: lysate of dsDNA/dsRNA-stimulated primary human thyrocytes, 0.33 nmol/μg total protein

| SMILES | cytotoxic effects (primary human thyrocytes) | Kd (HSP90AA1 [1]) | interaction with HSP90AA1 by Lip-MS (HSP90AA1 [2]) | KD (affinity with HSP90AA1) (HSP90AA1 [1]; His-tag labeled HSP90AA1 50 nM, ligand 30 nM to 1 mM, PBS) |
| --- | --- | --- | --- | --- |
| O=c1c(O)c(-c2ccc(O)cc2)oc2cc(O)cc(O)c12 [kaempferol] | without observed cytotoxic effects | 169 µM | – | – |
| O=c1cc(-c2ccc(O)c(O)c2)oc2cc(O)cc(O)c12 [luteolin] | – | 294 µM | identified as a common interacting protein target | – |
| O=c1c(O)c(-c2ccc(O)cc2O)oc2cc(O)cc(O)c12 [morin] | without observed cytotoxic effects | 123 µM | identified as a common interacting protein target | – |
| O=c1c(O)c(-c2ccc(O)c(O)c2)oc2cc(O)cc(O)c12 [quercetin] | without observed cytotoxic effects | – | identified as a common interacting protein target | – |
| CC[C@H](CC[C@@H](C)[C@H]1CC[C@H]2[C@@H]3CC=C4C[C@@H](O)CC[C@]4(C)[C@H]3CC[C@]12C)C(C)C [β-sitosterol] | without observed cytotoxic effects | – | – | no binding affinity |
